The source made the active and inactive calls. No cut-off for these calls is given here.
Legend:
[1] = Growth inhibition of human U373 cells by MTT assay; assay type: functional, cell-based, U-373MG ATCC; conditions: U373 MG
[2] = tested on: SK-MEL-28; experiment: Growth inhibition of human SK-MEL-28 cells by MTT assay; assay type: functional, cell-based
[3] = Chemical stability of the compound in MEM and RPMI assessed as compound recovery after 72 hrs in presence of foetal calf serum; assay type: physicochemical; conditions: cattle, MEM and RPMI cell culture media with foetal calf serum; read-out: Drug recovery
[4] = tested on: A549; experiment: Growth inhibition of human A549 cells by MTT assay; assay type: functional, cell-based
[5] = Growth inhibition of human Hs683 cells by MTT assay; assay type: functional, cell-based; conditions: Hs 683
[6] = tested on: MCF7; experiment: Growth inhibition of human MCF7 cells by MTT assay; assay type: functional, cell-based
[7] = Growth inhibition of mouse B16F10 cells by MTT assay; assay type: functional, cell-based; conditions: B16-F10
[8] = tested on: U-373MG ATCC; experiment: Cytotoxicity against human U373 cells at 5 uM after 72 hrs by video microscopic analysis; assay type: functional, cell-based
[9] = tested on: U-373MG ATCC; experiment: Cytotoxicity against human U373 cells at 17 uM after 72 hrs by video microscopic analysis; assay type: functional, cell-based
[10] = tested on: U-373MG ATCC; experiment: Cytotoxicity against human U373 cells at 8 uM after 72 hrs by video microscopic analysis; assay type: functional, cell-based

SMILES	IC50 [1] [µM]	IC50 [2] [µM]	remaining at 72 h [3] [%]	IC50 [4] [µM]	IC50 [5] [µM]	IC50 [6] [µM]	IC50 [7] [µM]	Activity [8]	Activity [9]	Activity [10]
CCCCCCCC/C=C\CCCCCCCC(=O)Oc1cccc2c1C(=O)C=C(C)C2=O	62	31	> 95	36	35	57	22			
CCCCCCCCCCCCCCCC(=O)Oc1cccc2c1C(=O)C=C(C)C2=O	48	73	> 95	30	33	57	22			
CCCCCCCCCCCCCCCC(=O)Oc1cccc2c1C(=O)C=CC2=O	> 100	> 100	> 95	> 100	> 100	86	53			
CC1=CC(=O)c2c(O)cccc2C1=O [PLUMBAGIN]	5	5		3	4	3	1	Active		
CCOc1cccc2c1C(=O)C=C(C)C2=O	24	3		3	2	6	3			
CCCCCCCCCCCCCCCCCC(=O)Oc1cccc2c1C(=O)C=C(C)C2=O	> 100	91	> 95	> 100	> 100	> 100	46			
CC(C)=CCOc1cccc2c1C(=O)C=C(C)C2=O	7	7		4	3	3	1			
CCCCCCCCCCCC(=O)Oc1cccc2c1C(=O)C=CC2=O	18	15	> 95	29	29	24	8			
C=CCOc1cccc2c1C(=O)C=CC2=O	32	24		26	19	21	4			
CC(C)=CCC/C(C)=C/COc1cccc2c1C(=O)C=CC2=O	> 100	> 100		67	67	> 100	> 100			
CCCCCCCCCCCC(=O)Oc1cccc2c1C(=O)C=C(C)C2=O	16	77	> 95	22	17	29	3			
CCCCCCCCCCCCCC(=O)Oc1cccc2c1C(=O)C=CC2=O	30	33	> 95	36	36	30	27			
CCCCCCCCCCCCCCCCCC(=O)Oc1cccc2c1C(=O)C=CC2=O	65	18	> 95	67	67	30	19			
COc1cccc2c1C(=O)C=CC2=O	9	30		9	6	39	10			
CCCCCCCC/C=C\CCCCCCCC(=O)Oc1cccc2c1C(=O)C=CC2=O	91	67	> 95	77	77	61	61			
C=CCOc1cccc2c1C(=O)C=C(C)C2=O	3	3		3	3	3	1			
O=C1C=CC(=O)c2c(O)cccc21 [JUGLONE]	17	7		7	7	13	6		Active	
COc1cccc2c1C(=O)C=C(C)C2=O	5	5		4	3	5	2	Active		
CC(=O)Oc1cccc2c1C(=O)C=CC2=O	8	23	> 95	23	23	8	7			Active
CC(C)=CCC/C(C)=C/COc1cccc2c1C(=O)C=C(C)C2=O	59	31		23	22	40	30			
CC(=O)Oc1cccc2c1C(=O)C=C(C)C2=O	5	3	> 95	5	5	4	0.4			
CC(C)=CCOc1cccc2c1C(=O)C=CC2=O	15	5		6	7	16	7			
CCCCCCCCCCCCCC(=O)Oc1cccc2c1C(=O)C=C(C)C2=O	16	18	> 95	12	9	22	3			
CCOc1cccc2c1C(=O)C=CC2=O	29	9		19	23	24	5			
